*1 amine or outer side, *2 acyl side, *3 side chain or, on linkers, in order; H or OH if unused. Where a SMILES comes first, the peptide text is derived from it. Side-chain parts run from the residue outwards. [ ]: non-standard residue; d: D form. The star is where a group is joined. X15 = CCCCCCCCCCCCCCCCCC(=O)N[C@@H](CCC(=O)N[C@@H](CCC(=O)N[C@@H](CCC(=O)NCCCOCCOCCOCCCNC(=O)COCC(=O)NCCCOCCOCCOCCCNC(=O)COCC(=O)NCCCOCCOCCOCCCNC(=O)COCC(=O)*)C(=O)O)C(=O)O)C(=O)O; X16 = CCCCCCCCCCCCCCCCCC(=O)N[C@@H](CCC(=O)N[C@@H](CCC(=O)N[C@@H](CCC(=O)NCCCOCCOCCOCCCNC(=O)COCC(=O)*)C(=O)O)C(=O)O)C(=O)O; PEG12 = NCCOCCOCCOCCOCCOCCOCCOCCOCCOCCOCCOCCOCCC(=O)O; γGlu = O=C(O)[C@H](CCC(=O)[*:2])N[*:1]; 1Nal = N[C@@H](Cc1cccc2ccccc12)C(=O)O; Stearoyl = CCCCCCCCCCCCCCCCCC(=O)*; Nle = CCCC[C@H](N)C(=O)O; AEEA = NCCOCCOCC(=O)O; Aib = CC(C)(N)C(=O)O
Target: T1, RXFP1 (Homo sapiens, UniProt Q9HBX9)
T1 construct: OVCAR5 cells expressing endogenous RXFP1; endogenous in cells; host or cells: OVCAR5 cells
T1 sequence (Q9HBX9 1-757): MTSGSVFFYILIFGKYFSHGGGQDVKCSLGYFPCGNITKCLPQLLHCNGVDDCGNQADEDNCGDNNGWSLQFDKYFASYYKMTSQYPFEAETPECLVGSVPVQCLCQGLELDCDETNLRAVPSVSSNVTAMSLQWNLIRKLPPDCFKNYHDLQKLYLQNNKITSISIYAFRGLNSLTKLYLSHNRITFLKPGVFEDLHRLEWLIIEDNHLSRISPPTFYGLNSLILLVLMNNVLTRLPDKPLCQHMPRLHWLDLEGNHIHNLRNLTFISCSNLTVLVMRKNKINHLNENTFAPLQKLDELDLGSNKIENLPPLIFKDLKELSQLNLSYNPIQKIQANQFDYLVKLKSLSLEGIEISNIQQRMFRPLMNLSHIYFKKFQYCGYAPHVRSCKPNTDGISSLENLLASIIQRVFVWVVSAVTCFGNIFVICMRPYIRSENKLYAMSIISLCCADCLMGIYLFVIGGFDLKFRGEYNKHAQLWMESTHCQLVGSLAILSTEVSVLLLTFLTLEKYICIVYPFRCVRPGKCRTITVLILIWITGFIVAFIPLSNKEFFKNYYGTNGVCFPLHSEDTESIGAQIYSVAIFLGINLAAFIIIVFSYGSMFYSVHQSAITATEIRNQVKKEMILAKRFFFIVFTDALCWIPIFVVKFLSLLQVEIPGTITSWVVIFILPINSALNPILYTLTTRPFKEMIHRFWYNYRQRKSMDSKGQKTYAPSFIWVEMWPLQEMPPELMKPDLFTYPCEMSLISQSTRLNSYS
Assay: OVCAR5 cAMP assay (HTRF), RXFP1 agonist activity
Type: cell-based
Conditions: for EC50: OVCAR5 cells, cAMP HTRF, read-out: EC50 (nM), OVCAR 5 cells (cAMP); for Emax: OVCAR-5, maximal cAMP relative to H2-relaxin maximum (100%), read-out: EMax, OVCAR 5 cells (cAMP)
Outline: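 OVCAR5 cells (endogenous RXFP1) pretreated 40 min at 37° C with 1 mM IBMX, then exposed to peptides in serum-free medium for 30 min at 37° C. Lysate cAMP read by HTRF; EC50 from variable-slope sigmoidal fit; Emax as % of H2-relaxin maximal cAMP in same run.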

Row | Compound | EC50 [nM] | Emax [%]
1 | CCCCCCCCCCCCCCCCCC(=O)N[C@@H](CCC(=O)N[C@@H](CCC(=O)N[C@@H](CCC(=O)NCCOCCOCC(=O)NCCOCCOCC(=O)NCCOCCOCC(=O)NCCOCCOCC(=O)NCCOCCOCC(=O)NCCCC[C@H](NC(=O)[C@H](CCCCN)NC(=O)[C@H](CCCCN)NC(=O)[C@H](CCCNC(=N)N)NC(=O)C(C)(C)NC(=O)[C@H](CO)NC(=O)[C@H](Cc1c[nH]c2ccccc12)NC(=O)[C@@H](NC(=O)[C@H](CO)NC(=O)[C@H](CCCC)NC(=O)CNC(=O)[C@H](CCC(=O)O)NC(=O)C(C)(C)NC(=O)C(C)(C)NC(=O)[C@@H](NC(=O)[C@H](CCC(N)=O)NC(=O)[C@H](C)NC(=O)[C@H](CCCNC(=N)N)NC(=O)[C@@H](NC(=O)[C@H](CCCCN)NC(=O)[C@H](CCC(=O)O)NC(=O)[C@H](CCCNC(=N)N)NC(=O)CNC(=O)[C@H](CCC(=O)O)NC(=O)[C@H](CC(C)C)NC(C)=O)C(C)C)[C@@H](C)CC)[C@@H](C)O)C(N)=O)C(=O)O)C(=O)O)C(=O)O [compound 93] (Ac-LEGREKVRAQI[Aib][Aib]EG[Nle]STWS[Aib]RKKK([AEEA-AEEA-AEEA-AEEA-AEEA-γGlu-γGlu-γGlu-Stearoyl])-NH2) | 0.14 | 87
2 | CCCCCCCCCCCCCCCCCC(=O)N[C@@H](CCC(=O)N[C@@H](CCC(=O)N[C@@H](CCC(=O)NCCCOCCOCCOCCCNC(=O)COCC(=O)NCCCC[C@H](NC(=O)[C@H](CCCCNC(C)=O)NC(=O)[C@H](CCCCN)NC(=O)[C@H](CCCNC(=N)N)NC(=O)C(C)(C)NC(=O)[C@H](CO)NC(=O)[C@H](Cc1c[nH]c2ccccc12)NC(=O)[C@@H](NC(=O)[C@H](CO)NC(=O)[C@H](CCCC)NC(=O)CNC(=O)[C@H](CCC(=O)O)NC(=O)C(C)(C)NC(=O)C(C)(C)NC(=O)[C@@H](NC(=O)[C@H](CCCCNC(C)=O)NC(=O)[C@H](C)NC(=O)[C@H](CCCNC(=N)N)NC(=O)[C@@H](NC(=O)[C@H](CCCCN)NC(=O)[C@H](CCC(=O)O)NC(=O)[C@H](CCCNC(=N)N)NC(=O)CNC(=O)[C@H](CCC(=O)O)NC(=O)[C@H](CC(C)C)NC(C)=O)C(C)C)[C@@H](C)CC)[C@@H](C)O)C(N)=O)C(=O)O)C(=O)O)C(=O)O [compound 94] (Ac-LEGREKVRAK(Ac)I[Aib][Aib]EG[Nle]STWS[Aib]RKK(Ac)K(X16)-NH2) | – | 90
3 | CCCCCCCCCCCCCCCCCC(=O)N[C@@H](CCC(=O)N[C@@H](CCC(=O)N[C@@H](CCC(=O)NCCCOCCOCCOCCCNC(=O)COCC(=O)NCCCOCCOCCOCCCNC(=O)COCC(=O)NCCCOCCOCCOCCCNC(=O)COCC(=O)NCCCC[C@H](NC(=O)[C@H](CCCCNC(C)=O)NC(=O)[C@H](CCCCN)NC(=O)[C@H](CCCNC(=N)N)NC(=O)C(C)(C)NC(=O)[C@H](CO)NC(=O)[C@H](Cc1c[nH]c2ccccc12)NC(=O)[C@@H](NC(=O)[C@H](CO)NC(=O)[C@H](CCCC)NC(=O)CNC(=O)[C@H](CCC(=O)O)NC(=O)C(C)(C)NC(=O)C(C)(C)NC(=O)[C@@H](NC(=O)[C@H](CCCCNC(C)=O)NC(=O)[C@H](C)NC(=O)[C@H](CCCNC(=N)N)NC(=O)[C@@H](NC(=O)[C@H](CCCCN)NC(=O)[C@H](CCC(=O)O)NC(=O)[C@H](CCCNC(=N)N)NC(=O)CNC(=O)[C@H](CCC(=O)O)NC(=O)[C@H](CC(C)C)NC(C)=O)C(C)C)[C@@H](C)CC)[C@@H](C)O)C(N)=O)C(=O)O)C(=O)O)C(=O)O [compound 96] (Ac-LEGREKVRAK(Ac)I[Aib][Aib]EG[Nle]STWS[Aib]RKK(Ac)K(X15)-NH2) | – | 89
4 | CCCCCCCCCCCCCCCCCC(=O)N[C@@H](CCC(=O)N[C@@H](CCC(=O)N[C@@H](CCC(=O)NCCOCCOCCOCCOCCOCCOCCOCCOCCOCCOCCOCCOCCC(=O)NCCCC[C@H](NC(=O)[C@H](CCCCN)NC(=O)[C@H](CCCCN)NC(=O)[C@H](CCCNC(=N)N)NC(=O)C(C)(C)NC(=O)[C@H](CO)NC(=O)[C@H](Cc1c[nH]c2ccccc12)NC(=O)[C@@H](NC(=O)[C@H](CO)NC(=O)[C@H](CCCC)NC(=O)CNC(=O)[C@H](CCC(=O)O)NC(=O)C(C)(C)NC(=O)C(C)(C)NC(=O)[C@@H](NC(=O)[C@H](CCC(N)=O)NC(=O)[C@H](C)NC(=O)[C@H](CCCNC(=N)N)NC(=O)[C@@H](NC(=O)[C@H](CCCCN)NC(=O)[C@H](CCC(=O)O)NC(=O)[C@H](CCCNC(=N)N)NC(=O)CNC(=O)[C@H](CCC(=O)O)NC(=O)[C@H](CC(C)C)NC(C)=O)C(C)C)[C@@H](C)CC)[C@@H](C)O)C(N)=O)C(=O)O)C(=O)O)C(=O)O [compound 97] (Ac-LEGREKVRAQI[Aib][Aib]EG[Nle]STWS[Aib]RKKK([PEG12-γGlu-γGlu-γGlu-Stearoyl])-NH2) | – | 98
5 | CCCCCCCCCCCCCCCCCC(=O)NCCOCCOCC(=O)N[C@@H](CCC(=O)N[C@@H](CCC(=O)N[C@@H](CCC(=O)NCCOCCOCC(=O)NCCOCCOCC(=O)NCCCC[C@H](NC(=O)[C@H](CCCCN)NC(=O)[C@H](CCCCN)NC(=O)[C@H](CCCNC(=N)N)NC(=O)C(C)(C)NC(=O)[C@H](CO)NC(=O)[C@H](Cc1c[nH]c2ccccc12)NC(=O)[C@@H](NC(=O)[C@H](CO)NC(=O)[C@H](CCCC)NC(=O)CNC(=O)[C@H](CCC(=O)O)NC(=O)C(C)(C)NC(=O)C(C)(C)NC(=O)[C@@H](NC(=O)[C@H](CCC(N)=O)NC(=O)[C@H](C)NC(=O)[C@H](CCCNC(=N)N)NC(=O)[C@@H](NC(=O)[C@H](CCCCN)NC(=O)[C@H](CCC(=O)O)NC(=O)[C@H](CCCNC(=N)N)NC(=O)CNC(=O)[C@H](CCC(=O)O)NC(=O)[C@H](CC(C)C)NC(C)=O)C(C)C)[C@@H](C)CC)[C@@H](C)O)C(N)=O)C(=O)O)C(=O)O)C(=O)O [compound 98] (Ac-LEGREKVRAQI[Aib][Aib]EG[Nle]STWS[Aib]RKKK([AEEA-AEEA-γGlu-γGlu-γGlu-AEEA-Stearoyl])-NH2) | – | 99
6 | CCCCCCCCCCCCCCCCCC(=O)N[C@@H](CCC(=O)NCCOCCOCC(=O)N[C@@H](CCC(=O)N[C@@H](CCC(=O)NCCOCCOCC(=O)NCCOCCOCC(=O)NCCCC[C@H](NC(=O)[C@H](CCCCN)NC(=O)[C@H](CCCCN)NC(=O)[C@H](CCCNC(=N)N)NC(=O)C(C)(C)NC(=O)[C@H](CO)NC(=O)[C@H](Cc1c[nH]c2ccccc12)NC(=O)[C@@H](NC(=O)[C@H](CO)NC(=O)[C@H](CCCC)NC(=O)CNC(=O)[C@H](CCC(=O)O)NC(=O)C(C)(C)NC(=O)C(C)(C)NC(=O)[C@@H](NC(=O)[C@H](CCC(N)=O)NC(=O)[C@H](C)NC(=O)[C@H](CCCNC(=N)N)NC(=O)[C@@H](NC(=O)[C@H](CCCCN)NC(=O)[C@H](CCC(=O)O)NC(=O)[C@H](CCCNC(=N)N)NC(=O)CNC(=O)[C@H](CCC(=O)O)NC(=O)[C@H](CC(C)C)NC(C)=O)C(C)C)[C@@H](C)CC)[C@@H](C)O)C(N)=O)C(=O)O)C(=O)O)C(=O)O [compound 99] (Ac-LEGREKVRAQI[Aib][Aib]EG[Nle]STWS[Aib]RKKK([AEEA-AEEA-γGlu-γGlu-AEEA-γGlu-Stearoyl])-NH2) | 0.01 | 87
7 | CCCCCCCCCCCCCCCCCC(=O)N[C@@H](CCC(=O)NCCOCCOCC(=O)N[C@@H](CCC(=O)N[C@@H](CCC(=O)N[C@@H](CCC(=O)NCCOCCOCC(=O)NCCOCCOCC(=O)NCCCC[C@H](NC(=O)[C@H](CCCCN)NC(=O)[C@H](CCCCN)NC(=O)[C@H](CCCNC(=N)N)NC(=O)C(C)(C)NC(=O)[C@H](CO)NC(=O)[C@H](Cc1cccc2ccccc12)NC(=O)[C@@H](NC(=O)[C@H](CO)NC(=O)[C@H](CCCC)NC(=O)CNC(=O)[C@H](CCC(=O)O)NC(=O)C(C)(C)NC(=O)C(C)(C)NC(=O)[C@@H](NC(=O)[C@H](CCCCNC(C)=O)NC(=O)[C@H](C)NC(=O)[C@H](CCCNC(=N)N)NC(=O)[C@@H](NC(=O)[C@H](CCCCN)NC(=O)[C@H](CCC(=O)O)NC(=O)[C@H](CCCNC(=N)N)NC(=O)CNC(=O)[C@H](CCC(=O)O)NC(=O)[C@H](CC(C)C)NC(C)=O)C(C)C)[C@@H](C)CC)[C@@H](C)O)C(N)=O)C(=O)O)C(=O)O)C(=O)O)C(=O)O [compound 103] (Ac-LEGREKVRAK(Ac)I[Aib][Aib]EG[Nle]ST[1Nal]S[Aib]RKKK([AEEA-AEEA-γGlu-γGlu-γGlu-AEEA-γGlu-Stearoyl])-NH2) | 0.09 | 79
8 | CCCCCCCCCCCCCCCCCC(=O)N[C@@H](CCC(=O)NCCOCCOCC(=O)NCCOCCOCC(=O)N[C@@H](CCC(=O)N[C@@H](CCC(=O)NCCCC[C@H](NC(=O)[C@H](CCCCN)NC(=O)[C@H](CCCNC(=N)N)NC(=O)C(C)(C)NC(=O)[C@H](CO)NC(=O)[C@H](Cc1c[nH]c2ccccc12)NC(=O)[C@@H](NC(=O)[C@H](CO)NC(=O)[C@H](CCCC)NC(=O)CNC(=O)[C@H](CCC(=O)O)NC(=O)C(C)(C)NC(=O)C(C)(C)NC(=O)[C@@H](NC(=O)[C@H](CCC(N)=O)NC(=O)[C@H](C)NC(=O)[C@H](CCCNC(=N)N)NC(=O)[C@@H](NC(=O)[C@H](CCCCN)NC(=O)[C@H](CCC(=O)O)NC(=O)[C@H](CCCNC(=N)N)NC(=O)CNC(=O)[C@H](CCC(=O)O)NC(=O)[C@H](CC(C)C)NC(C)=O)C(C)C)[C@@H](C)CC)[C@@H](C)O)C(N)=O)C(=O)O)C(=O)O)C(=O)O [compound 104] (Ac-LEGREKVRAQI[Aib][Aib]EG[Nle]STWS[Aib]RKK([γGlu-γGlu-AEEA-AEEA-γGlu-Stearoyl])-NH2) | 0.16 | 89
